Results from PubChem BioAssay AID1313 (NMMLSC, 2008).
Calls of active or inactive are those of the source.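 The calls were made as follows: active = compounds raising total GFP signal across six hours by more than 15% versus untreated cells; inactive = the rest.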 Peptide text beside a SMILES is read from it. * marks the point of attachment. Cbz = O=C(OCc1ccccc1)*

Test system: S. cerevisiae Sic1-GFP degradation, flow cytometry time course
Assay: yeast Sic1-GFP proteasomal turnover blockers – secondary assay, flow cytometry, S. cerevisiae (AID 1313)
Conditions: stronger effect = higher value; for GFP expression remaining at 240 min: measured here: earlier time point

In the case of CC(=O)N1C(=O)C(=C2C=C(C)OC(C)=C2)c2ccccc21, the GFP expression remaining at 360 min is reported as 0.71% (inactive) and the GFP expression remaining at 240 min is reported as 1.3%.
CC(C)C[C@@H](C=O)NC(=O)[C@H](CC(C)C)NC(=O)[C@H](CC(C)C)NC(=O)OCc1ccccc1 (Cbz-Leu-Leu-Leu-aldehyde) was tested, and the GFP expression remaining at 360 min was 1.68% (inactive) and the GFP expression remaining at 240 min was 3.24%.
